Assay results from ChEMBL document CHEMBL1201862, “PubChem BioAssay data set” (2004).
Activity calls are given as the source filed them.

Experiments:
[1] = target: FAD-linked sulfhydryl oxidase ALR (Homo sapiens, UniProt P55789); test: ALR-catalysed DTT oxidation blockers – biochemical, H2O2 detection, luminescence, cherry-pick, dose response (AID 493248)
[2] = Luminescence Cell-Based Dose Confirmation HTS to Identify Inhibitors of Platelet Dense Granule Release. [Related pubchem assays: 1663 (Primary HTS), 1678 (Summary of Project)]; assay type: functional
[3] = target: Luciferin 4-monooxygenase (Photinus pyralis, UniProt P08659); test: inhibition of purified Photinus pyralis luciferase – biochemical, luminescence, dose response (AID 1891)
Chain of Luciferin 4-monooxygenase (P08659 whole entry): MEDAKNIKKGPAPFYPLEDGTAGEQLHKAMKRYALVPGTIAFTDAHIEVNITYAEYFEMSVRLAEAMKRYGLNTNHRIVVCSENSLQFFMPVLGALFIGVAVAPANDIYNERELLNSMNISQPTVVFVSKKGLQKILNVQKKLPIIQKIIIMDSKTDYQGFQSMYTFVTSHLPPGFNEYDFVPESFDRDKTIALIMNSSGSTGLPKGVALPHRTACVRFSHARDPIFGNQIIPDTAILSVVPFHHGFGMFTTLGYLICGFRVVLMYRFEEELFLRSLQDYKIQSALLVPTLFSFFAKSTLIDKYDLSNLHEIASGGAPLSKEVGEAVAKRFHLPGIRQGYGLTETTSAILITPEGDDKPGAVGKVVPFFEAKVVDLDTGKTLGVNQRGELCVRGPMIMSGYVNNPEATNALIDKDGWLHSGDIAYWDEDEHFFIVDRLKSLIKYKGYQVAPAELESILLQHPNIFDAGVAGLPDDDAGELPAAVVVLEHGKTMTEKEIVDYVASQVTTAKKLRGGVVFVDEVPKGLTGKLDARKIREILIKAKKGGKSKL

Fatty acid synthase [4] = target: T1, Fatty acid synthase (Homo sapiens, UniProt P49327); test: inhibition of human FAS-TE enzyme activity – biochemical, kinetic fluorescence intensity, dose response (AID 624326); assay type: functional;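 note: rate of fluorescence rise from hydrolysis of a fluorogenic O-methyl fluorescein ester substrate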
T1 sequence (P49327 whole entry): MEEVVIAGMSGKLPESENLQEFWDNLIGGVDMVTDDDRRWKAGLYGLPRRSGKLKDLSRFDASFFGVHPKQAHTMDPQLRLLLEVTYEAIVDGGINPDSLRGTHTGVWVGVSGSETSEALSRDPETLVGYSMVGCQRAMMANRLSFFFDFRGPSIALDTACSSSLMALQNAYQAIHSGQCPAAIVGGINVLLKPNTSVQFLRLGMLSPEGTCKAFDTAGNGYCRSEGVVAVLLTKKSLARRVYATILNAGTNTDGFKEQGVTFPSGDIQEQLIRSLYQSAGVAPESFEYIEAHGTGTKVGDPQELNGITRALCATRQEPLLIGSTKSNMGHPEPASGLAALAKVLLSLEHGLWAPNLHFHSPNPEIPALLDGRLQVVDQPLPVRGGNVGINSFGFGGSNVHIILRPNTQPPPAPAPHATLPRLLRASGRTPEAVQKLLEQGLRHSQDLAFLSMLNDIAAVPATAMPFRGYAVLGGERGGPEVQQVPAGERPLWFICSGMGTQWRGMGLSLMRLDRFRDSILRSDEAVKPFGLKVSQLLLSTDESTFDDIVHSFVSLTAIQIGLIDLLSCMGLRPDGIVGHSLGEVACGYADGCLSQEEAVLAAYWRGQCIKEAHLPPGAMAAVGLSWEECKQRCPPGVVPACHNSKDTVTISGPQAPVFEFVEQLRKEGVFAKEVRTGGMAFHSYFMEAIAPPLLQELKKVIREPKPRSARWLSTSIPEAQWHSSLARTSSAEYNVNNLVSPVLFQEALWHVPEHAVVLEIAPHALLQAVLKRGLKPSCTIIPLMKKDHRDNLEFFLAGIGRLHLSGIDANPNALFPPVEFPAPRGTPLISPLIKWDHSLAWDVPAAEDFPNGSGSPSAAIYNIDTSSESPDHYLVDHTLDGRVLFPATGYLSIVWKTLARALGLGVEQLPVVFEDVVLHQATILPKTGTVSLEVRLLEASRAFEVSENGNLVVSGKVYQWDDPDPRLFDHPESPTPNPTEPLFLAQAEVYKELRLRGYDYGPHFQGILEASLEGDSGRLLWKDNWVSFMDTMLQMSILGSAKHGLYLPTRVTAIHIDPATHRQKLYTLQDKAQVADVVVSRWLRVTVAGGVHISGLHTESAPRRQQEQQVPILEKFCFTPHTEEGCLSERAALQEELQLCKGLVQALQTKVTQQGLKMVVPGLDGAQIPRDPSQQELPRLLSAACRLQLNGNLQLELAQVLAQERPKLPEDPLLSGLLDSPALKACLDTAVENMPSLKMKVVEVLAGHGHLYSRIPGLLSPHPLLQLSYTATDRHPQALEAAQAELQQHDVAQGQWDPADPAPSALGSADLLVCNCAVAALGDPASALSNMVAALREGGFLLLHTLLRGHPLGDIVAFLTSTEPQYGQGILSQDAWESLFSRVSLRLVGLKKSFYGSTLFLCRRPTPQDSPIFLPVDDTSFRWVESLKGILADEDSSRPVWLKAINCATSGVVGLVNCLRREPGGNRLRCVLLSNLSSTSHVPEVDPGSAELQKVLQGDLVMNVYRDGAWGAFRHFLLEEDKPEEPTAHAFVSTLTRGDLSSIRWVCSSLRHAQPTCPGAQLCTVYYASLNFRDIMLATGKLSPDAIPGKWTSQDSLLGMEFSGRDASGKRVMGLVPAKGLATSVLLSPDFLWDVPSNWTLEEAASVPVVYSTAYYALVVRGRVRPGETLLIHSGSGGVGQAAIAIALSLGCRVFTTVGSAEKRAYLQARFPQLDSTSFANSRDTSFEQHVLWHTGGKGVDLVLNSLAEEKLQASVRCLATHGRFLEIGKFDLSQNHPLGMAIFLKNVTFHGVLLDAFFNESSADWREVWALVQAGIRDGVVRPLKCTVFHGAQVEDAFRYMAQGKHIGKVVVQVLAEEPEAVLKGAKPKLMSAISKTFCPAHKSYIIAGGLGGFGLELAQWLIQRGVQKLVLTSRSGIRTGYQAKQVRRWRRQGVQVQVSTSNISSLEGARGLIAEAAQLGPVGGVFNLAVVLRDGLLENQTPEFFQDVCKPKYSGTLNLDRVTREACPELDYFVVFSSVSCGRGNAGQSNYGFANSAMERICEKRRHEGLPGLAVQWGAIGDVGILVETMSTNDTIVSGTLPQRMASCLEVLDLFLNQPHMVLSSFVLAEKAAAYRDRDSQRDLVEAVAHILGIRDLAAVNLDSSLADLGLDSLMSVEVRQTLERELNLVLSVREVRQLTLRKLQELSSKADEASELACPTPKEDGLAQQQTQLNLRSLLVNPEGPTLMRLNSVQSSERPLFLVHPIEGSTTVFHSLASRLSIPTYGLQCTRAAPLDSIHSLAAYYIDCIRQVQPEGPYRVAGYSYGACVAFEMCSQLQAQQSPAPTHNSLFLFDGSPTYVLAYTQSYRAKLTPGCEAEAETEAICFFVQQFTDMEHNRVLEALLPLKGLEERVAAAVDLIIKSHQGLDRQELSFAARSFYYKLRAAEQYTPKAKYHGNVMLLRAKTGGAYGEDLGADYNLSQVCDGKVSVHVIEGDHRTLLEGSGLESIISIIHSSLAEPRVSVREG

Fatty acid synthase [5] = target: T1, Fatty acid synthase; test: inhibition of human FAS-TE enzyme activity – biochemical, endpoint fluorescence intensity, uHTS hits, dose response (AID 624327); assay type: functional;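 note: fluorescence from hydrolysis of an O-methyl fluorescein acyl ester substrate by the enzyme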
Genome polyprotein = Genome polyprotein (dengue virus type 2, UniProt P29990); test: flavivirus cap methylation enzyme inhibition – biochemical, confirmation dose response, primary screen (AID 588689); assay type: functional
Chain of Genome polyprotein (P29990 2492-3391 limits assumed): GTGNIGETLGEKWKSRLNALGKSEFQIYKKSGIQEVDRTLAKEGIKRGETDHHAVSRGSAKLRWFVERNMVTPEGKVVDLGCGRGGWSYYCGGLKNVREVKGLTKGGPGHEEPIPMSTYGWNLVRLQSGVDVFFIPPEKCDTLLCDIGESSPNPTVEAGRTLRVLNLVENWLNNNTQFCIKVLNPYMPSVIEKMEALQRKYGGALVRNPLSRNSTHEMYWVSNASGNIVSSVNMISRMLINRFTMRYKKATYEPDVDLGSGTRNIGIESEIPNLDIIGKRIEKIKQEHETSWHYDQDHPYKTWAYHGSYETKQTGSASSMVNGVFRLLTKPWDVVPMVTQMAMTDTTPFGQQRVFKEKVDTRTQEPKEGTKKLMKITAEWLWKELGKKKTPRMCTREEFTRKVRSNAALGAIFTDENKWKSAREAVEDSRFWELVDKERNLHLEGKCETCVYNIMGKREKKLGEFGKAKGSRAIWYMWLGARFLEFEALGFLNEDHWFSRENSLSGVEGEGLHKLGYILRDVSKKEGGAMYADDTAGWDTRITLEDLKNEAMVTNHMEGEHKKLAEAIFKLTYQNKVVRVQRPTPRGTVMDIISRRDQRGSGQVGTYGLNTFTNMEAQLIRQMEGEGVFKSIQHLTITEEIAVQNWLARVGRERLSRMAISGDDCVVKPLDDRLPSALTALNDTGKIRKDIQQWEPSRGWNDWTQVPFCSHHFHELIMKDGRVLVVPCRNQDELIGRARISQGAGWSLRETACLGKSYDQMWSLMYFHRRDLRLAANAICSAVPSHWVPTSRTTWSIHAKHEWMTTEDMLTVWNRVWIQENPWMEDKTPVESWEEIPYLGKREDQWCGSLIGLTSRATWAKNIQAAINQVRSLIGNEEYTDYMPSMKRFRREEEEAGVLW

[6] = target: T2, Polyadenylate-binding protein 1 (Homo sapiens, UniProt P11940); test: MLLE binding blockers, Cy5 peptide tracer – biochemical, fluorescence polarization, Cy5-PAM2 peptide, secondary, miRNA deadenylation inhibitor project, dose response (AID 602260); assay type: functional; settings: read-out: IC50_Mean
T2 sequence (P11940 whole entry, the tested form may be a part): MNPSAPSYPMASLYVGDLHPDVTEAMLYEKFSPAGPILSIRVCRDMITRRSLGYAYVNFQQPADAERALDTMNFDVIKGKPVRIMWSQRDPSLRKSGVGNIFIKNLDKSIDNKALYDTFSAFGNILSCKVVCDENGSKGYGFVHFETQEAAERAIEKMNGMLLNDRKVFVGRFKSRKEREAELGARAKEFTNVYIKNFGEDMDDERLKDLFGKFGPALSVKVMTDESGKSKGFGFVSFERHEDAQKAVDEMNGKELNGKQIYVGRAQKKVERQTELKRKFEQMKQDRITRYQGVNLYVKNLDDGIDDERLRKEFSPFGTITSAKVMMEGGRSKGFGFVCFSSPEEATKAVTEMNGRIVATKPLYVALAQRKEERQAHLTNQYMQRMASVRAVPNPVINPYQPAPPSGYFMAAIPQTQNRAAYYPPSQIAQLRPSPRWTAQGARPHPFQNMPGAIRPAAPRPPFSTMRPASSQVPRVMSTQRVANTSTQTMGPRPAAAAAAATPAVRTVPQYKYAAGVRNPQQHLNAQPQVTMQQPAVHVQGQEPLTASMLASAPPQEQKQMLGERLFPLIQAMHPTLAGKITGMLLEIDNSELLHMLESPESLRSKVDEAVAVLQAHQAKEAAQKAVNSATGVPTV

[7] = target: T2, Polyadenylate-binding protein 1; test: MLLE domain peptide-binding blockers, IC50 – biochemical, fluorescence polarization, FITC-PAM2 peptide, dose response (AID 602259); assay type: functional; settings: read-out: IC50_Mean
H9c2 = test: cells; assay type: functional, cell-based; settings: Rattus norvegicus, H9c2, Myocardium;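 note: confirmatory concentration-response retest of ultra-high-throughput screening hits for modulation of myocardial damage; cell death induced by hydrogen peroxide oxidative stress; compound pretreatment for 60 min then peroxide exposure for 2 h; potency is for protecting the cells against peroxide damage rather than for killing them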
[8] = target: Heat shock protein HSP 90-alpha (Homo sapiens, UniProt P07900); assay type: functional, organism-based

Chain of FAD-linked sulfhydryl oxidase ALR (P55789 whole entry): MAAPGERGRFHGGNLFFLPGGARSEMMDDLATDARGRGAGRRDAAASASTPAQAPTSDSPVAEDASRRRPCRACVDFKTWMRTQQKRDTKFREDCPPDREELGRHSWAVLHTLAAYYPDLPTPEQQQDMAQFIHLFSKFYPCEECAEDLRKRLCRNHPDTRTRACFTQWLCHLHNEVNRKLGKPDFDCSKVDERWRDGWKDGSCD

SC1=NC2(CCCCC2)NN1c1ccccc1
AC50 [1]: 1.79 µM (active)

COc1ccccc1C(=O)Nc1ccc(C2=NNC(=O)CC2C)cc1 (stereo not drawn)
EC50 [2]: 0.361 µM (active)
EC50 [3]: > 112 µM (not active)

Cc1ccccc1C(=O)OCn1nnc2ccccc2c1=O
EC50 [2]: 16.2 µM (active)
EC50 [3]: > 112 µM (not active)

CCOC(=O)CCSc1nc2c(c(C(F)(F)F)c1C#N)CCC2
IC50 (Fatty acid synthase [4]): 8.57 µM (active)
IC50 (Fatty acid synthase [5]): 7.74 µM (active)

O=C(O)CN1C(=O)/C(=C2\SC(=S)N(C(Cc3ccccc3)C(=O)O)C2=O)c2ccccc21 (stereo not drawn)
IC50 (Genome polyprotein): 42 µM (active)
IC50 [6]: > 66 µM (inactive)
IC50 [7]: > 66 µM (inactive)

COCCCNC(=O)/C(C#N)=C1\N=C(NC(=O)c2cccs2)c2ccccc21
IC50 (H9c2): > 79 µM (inactive)

Cn1c(SCc2cccc(Cl)c2)nc(C(F)(F)F)cc1=O
IC50 (Fatty acid synthase [4]): 12.2 µM (active)
IC50 (Fatty acid synthase [5]): 18.4 µM (active)

Cc1cc(C)c([N+](=O)[O-])cc1NCC(=O)N1CCN(c2ccccc2)CC1
IC50 (Fatty acid synthase [4]): 6.55 µM (active)
IC50 (Fatty acid synthase [5]): 9.53 µM (active)

Cc1ccc(S(=O)(=O)N2CCN=C2SCc2cccnc2)cc1
AC50 [1]: 0.046 µM (active)

COc1cccc(N2CCN(Cc3ccc(Cl)cc3)CC2)c1
EC50 [2]: > 112 µM (not active)
EC50 [3]: > 112 µM (not active)

O=C(NC12CC3CC(CC(C3)C1)C2)c1cc([N+](=O)[O-])ccc1N1CCOCC1
IC50 (Fatty acid synthase [4]): 14.7 µM (active)
IC50 (Fatty acid synthase [5]): 24.9 µM (inactive)

COc1cc(/C=N/NC(=O)c2cccnc2)ccc1OS(=O)(=O)c1ccc(F)cc1
IC50 (H9c2): 7.92 µM (active)

O=C(CCN1C(=O)C2C3CCC(C3)C2C1=O)Nc1ccccc1Cl (stereo not drawn)
EC50 [2]: > 112 µM (not active)
EC50 [3]: > 112 µM (not active)

CCCc1cc(=O)oc2cc(OCc3ccc(C(=O)O)cc3)ccc12
AC50 [8]: 3.75 µM (active)

COc1cc(C(=O)Nc2ccc(NC(=O)c3ccco3)nc2)cc(OC)c1OC
IC50 (H9c2): 21.4 µM (active)

COCCNC(=O)COC(=O)c1ccc(OCC(=O)Nc2ccccc2OC)c(OC)c1
IC50 (H9c2): > 79 µM (inactive)

COc1ccc(CNC(=O)C[C@H]2C[C@H](C(=O)N3CCOCC3)[C@@]3(CCC4CCCC4)c4[nH]c5ccc(Cl)cc5c4CCN3C2=O)cc1OC
IC50 (Fatty acid synthase [4]): 0.878 µM (active)
IC50 (Fatty acid synthase [5]): 1.71 µM (active)

COc1ccc(Cl)cc1-c1cc(C(=O)NCc2ccc(C(F)(F)F)cc2)[nH]n1
IC50 (Fatty acid synthase [4]): 17.1 µM (active)
IC50 (Fatty acid synthase [5]): 15.4 µM (active)

Cc1ccc(S(=O)(=O)N2CCN(C(=O)COC(=O)c3cc([N+](=O)[O-])ccc3NCCO)CC2)c(C)c1
IC50 (Fatty acid synthase [4]): 2.7 µM (active)
IC50 (Fatty acid synthase [5]): 6.04 µM (active)

Cc1cccc(-n2c(CCn3nc(C)c([N+](=O)[O-])c3C)n[nH]c2=S)c1
AC50 [1]: 4.3 µM (active)
